Patent US20020132817A1, “Heterocyclic compounds, their production and use” (priority 1998, published 2002)

| SMILES | melting point |
| --- | --- |
| Cc1ccc(-c2c3n(c(=O)c4ncccc24)CCC(C)CN(Cc2cc(C(F)(F)F)cc(C(F)(F)F)c2)C3=O)cc1 (racemic) [Reference Example 70, (+/−)-7-[3,5-Bis(trifluoromethyl)benzyl]-6,7,8,9,10,11-hexahydro-9-methyl-5-(4-methylphenyl)-6,13-dioxo-13H-[1,4]diazocino[2,1-g][1,7]naphthyridine] | 280 to 281 °C |
| Cc1ccc(-c2c3n(c(=O)c4ncccc24)CCN(Cc2cc(C(F)(F)F)cc(C(F)(F)F)c2)C3=O)cc1 [Reference Example 55, 7-[3,5-Bis(trifluoromethyl)benzyl]-6,7,8,9-tetrahydro-5-(4-methylphenyl)-6,11-dioxo-11H-pyrazino[2,1-g][1,7]naphthyridine] | 270 to 271 °C |
| O=C1c2c(-c3ccccc3)ccnc2OCCN1Cc1cc(C(F)(F)F)cc(C(F)(F)F)c1 [Reference Example 65, 4-[3,5-Bis(trifluoromethyl)benzyl]-2,3,4,5-tetrahydro-5-oxo-6-phenylpyrido[3,2-f][1,4]oxazepine] | 200 to 201 °C |
| Cc1ccc(-c2c3n(c(=O)c4ncccc24)CC[C@@H](C)CN(Cc2cc(C(F)(F)F)cc(C(F)(F)F)c2)C3=O)cc1 [Reference Example 72, (9R)-7-[3,5-Bis(trifluoromethyl)benzyl]-6,7,8,9,10,11-hexahydro-9-methyl-5-(4-methylphenyl)-6,13-dioxo-13H-[1,4]diazocino[2,1-g][1,7]naphthyridine] | 226 to 228 °C |
| C[C@H]1CCn2c(c(-c3ccccc3)c3cccnc3c2=O)C(=O)N(Cc2cc(C(F)(F)F)cc(C(F)(F)F)c2)C1 [Reference Example 73, (9S)-7-[3,5-Bis(trifluoromethyl)benzyl]-6,7,8,9,10,11-hexahydro-9-methyl-6,13-dioxo-5-phenyl-13H-[1,4]diazocino[2,1-g] [1,7]naphthyridine] | 242 to 244 °C |
| Cc1ccc(-c2c3n(c(=O)c4ncccc24)CC[C@H](C)CN(Cc2cc(C(F)(F)F)cc(C(F)(F)F)c2)C3=O)cc1 [Reference Example 74, (9S)-7-[3,5-Bis(trifluoromethyl)benzyl]-6,7,8,9,10,11-hexahydro-9-methyl-5-(4-methylphenyl)-6,13-dioxo-13H-[1,4]diazocino[2,1-g][1,7]naphthyridine] | 227 to 228 °C |
| O=C1c2c(-c3ccccc3)ccnc2NCCN1Cc1cc(C(F)(F)F)cc(C(F)(F)F)c1 [Reference Example 75, 4-[3,5-Bis(trifluoromethyl)benzyl]-2,3,4,5-tetrahydro-5-oxo-6-phenyl-1H-pyrido[2,3-e][1,4]diazepine] | 242 to 243 °C |
| Cc1cnc2c(c1-c1ccccc1)C(=O)N(Cc1cc(C(F)(F)F)cc(C(F)(F)F)c1)C[C@@H](C)CO2 [Reference Example 86, (R)-5-[3,5-Bis(trifluoromethyl)benzyl]-2,3,4,5-tetrahydro-3,8-dimethyl-6-oxo-7-phenyl-6H-pyrido[2,3-b][1,5]oxazocine] | 147 to 149 °C |
| Cc1cc(-c2ccccc2)c2c(n1)OCCCN(Cc1cc(C(F)(F)F)cc(C(F)(F)F)c1)C2=O [Reference Example 88, 5-[3,5-Bis(trifluoromethyl)benzyl]-2,3,4,5-tetrahydro-9-methyl-6-oxo-7-phenyl-6H-pyrido[2,3-b][1,5]oxazocine] | 164 to 165 °C |
| CSCc1cc(-c2ccccc2)c2c(n1)OCCN(Cc1cc(C(F)(F)F)cc(C(F)(F)F)c1)C2=O [Reference Example 96, 4-[3,5-Bis(trifluoromethyl)benzyl]-2,3,4,5-tetrahydro-8-methylthiomethyl-5-oxo-6-phenylpyrido[3,2-f][1,4]oxazepine] | 165 to 166 °C |
| NCc1cc(-c2ccccc2)c2c(n1)OCCN(Cc1cc(C(F)(F)F)cc(C(F)(F)F)c1)C2=O [Reference Example 97, 8-Aminomethyl-4-[3,5-bis(trifluoromethyl)benzyl]-2,3,4,5-tetrahydro-5-oxo-6-phenylpyrido[3,2-f][1,4]oxazepine] | 188 to 191 °C |
| CNCc1cc(-c2ccccc2)c2c(n1)OCCN(Cc1cc(C(F)(F)F)cc(C(F)(F)F)c1)C2=O [Reference Example 98, 4-[3,5-Bis(trifluoromethyl)benzyl]-2,3,4,5-tetrahydro-8-methylaminomethyl-5-oxo-6-phenylpyrido[3,2-f][1,4]oxazepine] | 152 to 154 °C |
| CC(=O)NCc1cc(-c2ccccc2)c2c(n1)OCCN(Cc1cc(C(F)(F)F)cc(C(F)(F)F)c1)C2=O [Reference Example 102, 8-Acetylaminomethyl-4-[3,5-bis(trifluoromethyl)benzyl]-2,3,4,5-tetrahydro-5-oxo-6-phenylpyrido[3,2-f][1,4]oxazepine] | 223 to 224 °C |

The next lines start with the values.

| melting point | SMILES |
| --- | --- |
| 194 to 195 °C | CS(=O)(=O)NCc1cc(-c2ccccc2)c2c(n1)OCCN(Cc1cc(C(F)(F)F)cc(C(F)(F)F)c1)C2=O [Reference Example 103, 4-[3,5-Bis(trifluoromethyl)benzyl]-2,3,4,5-tetrahydro-8-methanesulfonylaminomethyl-5-oxo-6-phenylpyrido[3,2-f][1,4]oxazepine] |
| 203 to 205 °C | Cc1cnc2c(c1-c1ccccc1)C(=O)N(Cc1cc(C(F)(F)F)cc(C(F)(F)F)c1)CCN(C)C2=O [Reference Example 104, 6-[3,5-Bis(trifluoromethyl)benzyl]-5,6,7,8,9,10-hexahydro-3,9-dimethyl-5,10-dioxo-4-phenylpyrido[2,3-f][1,4]diazocine] |
| 167 to 169 °C | CN1CCN(Cc2cc(C(F)(F)F)cc(C(F)(F)F)c2)C(=O)c2c(-c3ccccc3)ccnc2C1=O [Reference Example 105, 6-[3,5-Bis(trifluoromethyl)benzyl]-5,6,7,8,9,10-hexahydro-9-methyl-5,10-dioxo-4-phenylpyrido[2,3-f][1,4]diazocine] |
| 183 to 184 °C | Cc1cnc2c(c1-c1ccccc1)C(=O)N(Cc1ccccc1)CCN(C)C2=O [Reference Example 106, 6-Benzyl-5,6,7,8,9,10-hexahydro-3,9-dimethyl-5,10-dioxo-4-phenylpyrido[2,3-f][1,4]diazocine] |
| 228 to 229 °C | CCN1CCN(Cc2cc(C(F)(F)F)cc(C(F)(F)F)c2)C(=O)c2c(ncc(C)c2-c2ccccc2)C1=O [Reference Example 107, 6-[3,5-Bis(trifluoromethyl)benzyl]-9-ethyl-5,6,7,8,9,10-hexahydro-3-methyl-5,10-dioxo-4-phenylpyrido[2,3-f][1,4]diazocine] |
| 247 to 249 °C | Cc1cnc2c(c1-c1ccccc1)C(=O)N(Cc1cc(C(F)(F)F)cc(C(F)(F)F)c1)CCCN(C)C2=O [Reference Example 108, 6-[3,5-Bis(trifluoromethyl)benzyl]-6,7,8,9,10,11-hexahydro-3,10-dimethyl-5,11-dioxo-4-phenyl-5H-pyrido[2,3-g][1,5]diazonine] |
| 145 °C (dec.) | CNC(=O)c1cc(-c2ccccc2)c2c(n1)OCCN(Cc1cc(C(F)(F)F)cc(C(F)(F)F)c1)C2=O [Reference Example 112, 4-[3,5-Bis(trifluoromethyl)benzyl]-N-methyl-2,3,4,5-tetrahydro-5-oxo-6-phenylpyrido[3,2-f][1,4]oxazepine-8-carboxamide] |
| 235 to 236 °C | CN(C)C(=O)c1cc(-c2ccccc2)c2c(n1)OCCN(Cc1cc(C(F)(F)F)cc(C(F)(F)F)c1)C2=O [Reference Example 113, 4-[3,5-Bis(trifluoromethyl)benzyl]-N,N-dimethyl-2,3,4,5-tetrahydro-5-oxo-6-phenylpyrido[3,2-f][1,4]oxazepine-8-carboxamide] |
| 194 to 196 °C | CCCCNC(=O)c1cc(-c2ccccc2)c2c(n1)OCCN(Cc1cc(C(F)(F)F)cc(C(F)(F)F)c1)C2=O [Reference Example 114, 4-[3,5-Bis(trifluoromethyl)benzyl]-N-n-butyl-2,3,4,5-tetrahydro-5-oxo-6-phenylpyrido[3,2-f][1,4]oxazepine-8-carboxamide] |
| 218 to 220 °C | O=C(c1cc(-c2ccccc2)c2c(n1)OCCN(Cc1cc(C(F)(F)F)cc(C(F)(F)F)c1)C2=O)N1CCCCC1 [Reference Example 115, 4-[3,5-Bis(trifluoromethyl)benzyl]-2,3,4,5-tetrahydro-5-oxo-6-phenyl-8-piperidinocarbonylpyrido[3,2-f][1,4]oxazepine] |
| 265 to 266 °C | O=C(c1cc(-c2ccccc2)c2c(n1)OCCN(Cc1cc(C(F)(F)F)cc(C(F)(F)F)c1)C2=O)N1CCOCC1 [Reference Example 116, 4-[3,5-Bis(trifluoromethyl)benzyl]-2,3,4,5-tetrahydro-8-morpholinocarbonyl-5-oxo-6-phenylpyrido[3,2-f][1,4]oxazepine] |
| 177 to 179 °C | COc1cc(CN2CCOc3nccc(-c4ccccc4)c3C2=O)cc(OC)c1OC [Reference Example 118, 2,3,4,5-Tetrahydro-5-oxo-6-phenyl-4-(3,4,5-trimethoxybenzyl)pyrido[3,2-f][1,4]oxazepine] |
| 189 to 192 °C | O=C1c2c(-c3ccccc3)ccnc2OCCN1Cc1ccc(Cl)c(Cl)c1 [Reference Example 119, 4-(3,4-Dichlorobenzyl)-2,3,4,5-tetrahydro-5-oxo-6-phenylpyrido[3,2-f][1,4]oxazepine] |
| 175 to 176 °C | COc1ccc(CN2CCOc3nccc(-c4ccccc4)c3C2=O)cc1OC [Reference Example 120, 4-(3,4-Dimethoxybenzyl)-2,3,4,5-tetrahydro-5-oxo-6-phenylpyrido[3,2-f][1,4]oxazepine] |
| 209 to 211 °C | O=C1c2c(-c3ccccc3)ccnc2OCCN1Cc1ccccc1 [Reference Example 121, 4-Benzyl-2,3,4,5-tetrahydro-5-oxo-6-phenylpyrido[3,2-f][1,4]oxazepine] |
| 155 to 156 °C | COc1cc(CN2CCCOc3nccc(-c4ccccc4)c3C2=O)cc(OC)c1OC [Reference Example 122, 2,3,4,5-Tetrahydro-6-oxo-7-phenyl-5-(3,4,5-trimethoxybenzyl)-6H-pyrido[2,3-b][1,5]oxazocine] |
| 139 to 141 °C | C[C@@H]1COc2nccc(-c3ccccc3)c2C(=O)N(Cc2ccccc2)C1 [Reference Example 123, (S)-5-Benzyl-2,3,4,5-tetrahydro-3-methyl-6-oxo-7-phenyl-6H-pyrido[2,3-b][1,5]oxazocine] |
